According to patent US10239903B2, “Pt (IV) derivatives and nanocarriers comprising them” (Yissum Research Development Company of the Hebrew …, priority 2014, dated 2019):

Key:
A2780 cell line = assay: MTT cytotoxicity assay; assay type: cell-based; conditions: for IC50: cisplatin sensitive parent line; for IC50 A2780: 120 h treatment
Procedure: (§4) To evaluate the efficacy of the various drugs, cells were seeded in a sterile, 24-well plate and incubated in the presence of the drug for 72 h/120 h at 37° C., 5% CO2. The number of cells alive was quantified using (3-(4,5-dimethylthiazol-2-yl)-2,5 diphenyltetrazolium bromide) (MTT) assay. The cells were incubated for 2 h with MTT, DMSO was added to dissolve the crystals and the plates were measured at 540 nm. Viability (%) graphs were constructed relative to the control of every assay. The data were plotted in a graph, lines connected the points, and the values were determined from the interpolated graph.

A2780-cisR cell line = assay: MTT cytotoxicity assay; assay type: cell-based; conditions: for IC50: cisplatin resistant line; for RF, resistance factor: ratio of IC50 in A2780-cisR to A2780; for IC50 A2780-cisR: 120 h treatment
Procedure: as §4

CT-26-luc cell line = assay: MTT antiproliferative assay; assay type: cell-based, murine; conditions: 120 h incubation
[1] = Reduction potentials by cyclic voltammetry; assay type: physicochemical; conditions: versus Ag/AgCl
PC-3 cell line = assay: MTT cytotoxicity assay; conditions: for IC50 PC-3: 120 h treatment; for IC50: read-out: IC50 PC-3, 120 h incubation
Procedure: (§5) The in vitro experiments were performed in cell lines of lung cancer (A549), prostate cancer (DU145 and PC-3), pancreatic cancer (BxPC-3) and ovarian cancer (SKOV-3 and OVCAR-8). A549, BxPC-3 and OVCAR-8 cells were grown in RPMI medium supplemented with 10% fetal bovine serum (Gibco), 1% L-glutamine, 100 U/ml penicillin, 100 ug/ml streptomycin and 0.13% w/w gentamycin. PC-3 cells were cultured in DMEM plus 10% fetal bovine serum, 1% L-glutamine, 100 U/ml penicillin, 100 μg/ml streptomycin and 1% pyrovate. DU145 cells were grown in RPMI1640 medium supplemented with 10% fetal bovine serum, 100 U/ml penicillin, and 100 ug/ml streptomycin. SKOV-3 cells were cultured McCoy's 5A medium supplemented with 10% fetal bovine serum, 100 U/ml penicillin, and 100 ug/ml streptomycin. The cell lines were maintained at 37° C. under 5% CO2. […] The drugs were dissolved in DMSO and were added to the appropriate medium. Drug concentrations were chosen in a range that would never expose cells to more than 0.5% DMSO i.e. for 50 μg/ml maximal concentration; 0.5 mg of OXA-PAL-ACT was dissolved in 50 μl DMSO and then added to 10 ml cell medium.
as §4
(§6) The cells were treated continuously for 120 h.

PC-3 LUC cell line = assay: MTT cytotoxicity assay; conditions: for IC50 PC-3 LUC: 120 h treatment; for IC50: read-out: IC50 PC-3-luc, 120 h incubation
Procedure: as §4, §6

BxPC-3 cell line = assay: MTT cytotoxicity assay; conditions: for IC50 BXPC-3: 120 h treatment; for IC50: read-out: IC50 BxPC-3, 120 h incubation
Procedure: as §5, §4, §6

OVCAR-8 cell line = assay: MTT cytotoxicity assay; conditions: for IC50 OVCAR-8: 120 h treatment; for IC50: read-out: IC50 OVCAR-8, 120 h incubation
Procedure: as §5, §4, §6

SKOV-3 cell line = assay: MTT cytotoxicity assay; conditions: for IC50 SKOV-3: 120 h treatment; for IC50: read-out: IC50 SKOV-3, 120 h incubation
Procedure: as §5, §4, §6

[2] = Log P determination, shake flask method; conditions: n-octanol and water
Procedure: The partition coefficient of the new Pt compounds was determined in n-octanol and water by shake flask method.

A549 cell line = assay: MTT cytotoxicity assay; assay type: cell-based; conditions: 120 h treatment
Procedure: A549, BxPC-3 and OVCAR-8 cells were grown in RPMI medium supplemented with 10% fetal bovine serum (Gibco), 1% L-glutamine, 100 U/ml penicillin, 100 ug/ml streptomycin and 0.13% w/w gentamycin. […] The cell lines were maintained at 37° C. under 5% CO2. All cell culture products were obtained from Biological Industries (Beit HaEmek, Israel). The drugs were dissolved in DMSO and were added to the appropriate medium. Drug concentrations were chosen in a range that would never expose cells to more than 0.5% DMSO i.e. for 50 μg/ml maximal concentration; 0.5 mg of OXA-PAL-ACT was dissolved in 50 μl DMSO and then added to 10 ml cell medium.
as §4

HCT-15 cell line = assay: MTT cytotoxicity assay; assay type: cell-based; conditions: 120 h treatment
Procedure: as §4

A498 cell line = assay: MTT cytotoxicity assay; assay type: cell-based; conditions: 120 h treatment
Procedure: as §4

A375 cell line = assay: MTT cytotoxicity assay; assay type: cell-based; conditions: 120 h treatment
Procedure: as §4

BxPc-3-luc2 cell line = assay: MTT antiproliferative assay; assay type: cell-based, human
Procedure: (§1) The antiproliferative activities of the novel compound (free and incorporated in NPs) and OXA were determined in HCT 116-luc2 (human colorectal cancer) and BxPc-3-luc2 (human pancreatic cancer) cell lines by the MTT assay.

HCT 116-luc2 cell line = assay: MTT antiproliferative assay; assay type: cell-based, human
Procedure: as §1

HaCaT cell line = conditions: non-cancer human keratinocytes
Text: (§2) HaCaT cell line monolayer representing human keratinocytes, RASM line monolayer representing Rat Aortic Smooth Muscle cells.

[3] = test system: RASM (Rat Aortic Smooth Muscle cells); conditions: non-cancer Rat Aortic Smooth Muscle cells
Text: as §2

[4] = test system: SKOV-3 and SKOV-3-luc cells; assay: Whole-cell Pt accumulation (cellular uptake) by ICP-MS; assay type: cell-based, human; conditions: 24 h exposure, 5, 15, 25 μg/ml
Procedure: (§3) Following incubation, the drug-containing medium was removed, and cells were rinsed twice with cold PBS, trypsinized and were centrifuged into a pellet (4400 rpm, 5 min). 500 μl of nitric acid was added to cell pellets, and overnight incubated at 70° C. The samples were prepared by dilution using 0.1% SDS and 1% nitric acid lysis solution, and analyzed for Pt content by ICP-MS. DNA was isolated and purified from cell lines with the DNeasy Blood and Tissue Kit (Qiagen).
Cellular accumulation of platinum is a key step in cellular platinum drug pharmacology.

SKOV-3 cells = assay: DNA platination by ICP-MS; assay type: cell-based, human; conditions: 24 h exposure, 25 μg/ml
Procedure: as §3

SKOV-3 luc tumor = assay: Ovarian carcinoma mouse model, bioluminescent imaging; assay type: in vivo, SCID mice; conditions: from day 60; 15 mg/kg i.v. once a week, 4 treatments
Procedure: For induction of an ovarian carcinoma mouse model, 5-6 weeks-old severe combined immunodeficiency (SCID) mice, divided into 4 groups, were injected with 2×10^6 SKOV-3 luc cells directly into intraperitoneal cavity (i.p.). The cells were suspended in 100 μl PBS.
All treatments were given in an identical treatment regimen.

BxPc-3-luc2 tumor = assay: Pancreatic carcinoma mouse model, bioluminescent imaging; assay type: in vivo, SCID-bg mice; conditions: i.v. once a week, 4 treatments
Text: 5-6 weeks-old SCID mice were inoculated subcutaneously with 2×10^6 BxPC-3-luc cells.
Pancreatic tumors were induced by subcutaneous injection of the luciferase-transfected pancreas adenocarcinoma cells, BxPc-3-luc2, to SCID-bg mice. Tumor development and progression was validated by bioluminescent imaging. On the eighth day following tumor cells injection, a four-treatment cycle (intravenous route) was initiated (once a week).

HCT-116-luc2 tumor = assay: Colon cancer mouse model, bioluminescent imaging; assay type: in vivo, SCID-bg mice; conditions: 33 days from inoculation; 9 mg/kg OPA equivalent to 5 mg/kg OXA, i.v. every fourth day
Procedure: 5-6 weeks-old SCID mice were inoculated subcutaneously with 1×10^6 HCT-116-luc2 cells. 1 day following tumor inoculation, treatment was initiated. Treatment was administered once every fourth day by i.v. injection (tail), 4 treatments in total.
Results are presented as mean±SEM. […] In fact equivalent doses were […] since 9 mg/kg OPA is equivalent to 5 mg/kg OXA.

[5] = for body weight variation over time: OXA 5 mg/kg, OXA-PAL-ACT 15 mg/kg i.v. once a week; for maximum tolerated dose: i.v., solution

CCCCCCCCCCCCCCCC(=O)[O][Pt]1([O]C(=O)CCCCCCCCCCCCCCC)[O]C(=O)C(=O)[O]1.NC1CCCCC1N [OXADP, oxaliplatin dipalmitate]
IC50 (A2780 cell line): 7.5 ± 0.5 µM
IC50 (A2780-cisR cell line): > 55 µM
RF, resistance factor (A2780-cisR cell line): >7.3
IC50 (CT-26-luc cell line): > 55 µM
Ep, reduction potential [1]: −0.53 ± 0.02 V
IC50 PC-3 (PC-3 cell line): 2.20 ± 1.21 µg/mL
IC50 (PC-3 cell line): 2.42 ± 1.33 µM
IC50 PC-3 LUC (PC-3 LUC cell line): 21.35 ± 19.30 µg/mL
IC50 (PC-3 LUC cell line): 23.5 ± 21.2 µM
IC50 BXPC-3 (BxPC-3 cell line): 24.07 ± 12.96 µg/mL
IC50 (BxPC-3 cell line): 26.5 ± 14.3 µM
IC50 OVCAR-8 (OVCAR-8 cell line): 16 ± 3.12 µg/mL
IC50 (OVCAR-8 cell line): 17.6 ± 3.43 µM
IC50 SKOV-3 (SKOV-3 cell line): N.D* (N.D—Not Determined (The IC50 value is higher than maximal tested concentration-50 μg/ml))
IC50 (SKOV-3 cell line): > 55 µM
Measured logP [2]: 3.49

CCCCCCCCCCCCCCCC(=O)[O][Pt]12([O]C(C)=O)([NH]C3CCCCC3[NH]1)[O]C(=O)C(=O)[O]2 (centres unmarked) [OXA-PAL-ACT, oxaliplatin palmitate acetate]
IC50 A2780 (A2780 cell line): 0.26 µg/mL
IC50 (A2780 cell line): 0.36 ± 0.01 µM
IC50 A2780-cisR (A2780-cisR cell line): 0.24 µg/mL
resistance factor (A2780-cisR cell line; calculated from IC50 values of dose-response curves, A2780-cisR vs A2780 (FIG. 10)): 1
IC50 (A2780-cisR cell line): 0.34 ± 0.01 µM
RF, resistance factor (A2780-cisR cell line): 0.93
IC50 A549 (A549 cell line): 0.34 µg/mL
IC50 HCT-15 (HCT-15 cell line): 0.43 µg/mL
IC50 A498 (A498 cell line): 0.20 µg/mL
IC50 A375 (A375 cell line): 0.16 µg/mL
IC50 (BxPc-3-luc2 cell line): 0.31 ± 0.09 µM
IC50 (HCT 116-luc2 cell line): 0.37 ± 0.02 µM
IC50 (CT-26-luc cell line): 0.62 ± 0.24 µM
therapeutic ratio in HaCaT (HaCaT cell line): higher than 1.8
therapeutic ratio in RASM [3]: > 2
cellular accumulation of platinum [4]: substantially higher compared to that of oxaliplatin
nucleus DNA platination (SKOV-3 cells): higher DNA-platination
tumor growth (bioluminescence) efficacy (SKOV-3 luc tumor): more efficient that OXA
pancreatic tumor growth inhibition (BxPc-3-luc2 tumor): significantly more efficient in pancreatic tumor growth inhibition compared to OXA and the control
tumor growth inhibition (HCT-116-luc2 tumor): no significant efficacy difference
Ep, reduction potential [1]: −0.54 ± 0.02 V
body weight variation over time [5]: did not reduce the animal weight
maximum tolerated dose [5]: 15 mg/kg
IC50 PC-3 (PC-3 cell line): 0.25 ± 0.01 µg/mL
IC50 (PC-3 cell line): 0.35 ± 0.01 µM
IC50 PC-3 LUC (PC-3 LUC cell line): 0.33 ± 0.08 µg/mL
IC50 (PC-3 LUC cell line): 0.46 ± 0.11 µM
IC50 BXPC-3 (BxPC-3 cell line): 0.25 ± 0.01 µg/mL
IC50 (BxPC-3 cell line): 0.35 ± 0.01 µM
IC50 OVCAR-8 (OVCAR-8 cell line): 0.33 ± 0.03 µg/mL
IC50 (OVCAR-8 cell line): 0.46 ± 0.03 µM
IC50 SKOV-3 (SKOV-3 cell line): 0.39 ± 0.02 µg/mL
IC50 (SKOV-3 cell line): 0.54 ± 0.03 µM
Measured logP [2]: 2.06
observed Log P ([2]; n=5): 2.76±0.14

O=C1[O][Pt]2([NH][C@@H]3CCCC[C@H]3[NH]2)[O]C1=O [Oxaliplatin, reference compound]
IC50 A2780 (A2780 cell line): 0.31 µg/mL
IC50 (A2780 cell line): 0.78 ± 0.02 µM
IC50 A2780-cisR (A2780-cisR cell line): 1.63 ± 0.11 µg/mL
IC50 (A2780-cisR cell line): 4.1 ± 0.25 µM
IC50 (BxPc-3-luc2 cell line): 62.7 ± 2.52 µM
IC50 (HCT 116-luc2 cell line): 2.3 ± 1.08 µM
IC50 (CT-26-luc cell line): 5.6 ± 0.6 µM
pancreatic tumor growth inhibition (BxPc-3-luc2 tumor): did not show any efficacy
body weight variation over time [5]: marked weight reduction
maximum tolerated dose [5]: 5 mg/kg
IC50 PC-3 (PC-3 cell line): 3.63 ± 0.15 µg/mL
IC50 (PC-3 cell line): 9.16 ± 0.37 µM
IC50 PC-3 LUC (PC-3 LUC cell line): 11 ± 3.60 µg/mL
IC50 (PC-3 LUC cell line): 27.7 ± 9.05 µM
IC50 BXPC-3 (BxPC-3 cell line): 1.35 ± 0.35 µg/mL
IC50 (BxPC-3 cell line): 3.38 ± 0.87 µM
IC50 OVCAR-8 (OVCAR-8 cell line): 3.75 ± 1.77 µg/mL
IC50 (OVCAR-8 cell line): 9.44 ± 4.44 µM
IC50 SKOV-3 (SKOV-3 cell line): 32.5 ± 3.54 µg/mL
IC50 (SKOV-3 cell line): 58.3 ± 6.34 µM
